Laboratory results taken from paper PMC3116920, “Mechanisms for the Evolution of a Derived Function in the Ancestral Glucocorticoid Receptor” (PLoS Genetics, 2011).
Residue numbers refer to the chain shown, from its start. Read-outs that look alike come from different tables or passages of the source.

Tests used:
Leri GR = biological target: T1, Leri GR (Leucoraja erinaceus, UniProt Q1KXY4); assay: cell-based; set-up: species or system CHO-K1; Gal4DBD-LBD UAS-driven luciferase reporter transactivation, Dual-Glo read-out
T1 construct: LBD fused to Gal4 DBD in pSG5; CHO-K1 cells with UAS-luciferase
T1 sequence (Q1KXY4 1-317): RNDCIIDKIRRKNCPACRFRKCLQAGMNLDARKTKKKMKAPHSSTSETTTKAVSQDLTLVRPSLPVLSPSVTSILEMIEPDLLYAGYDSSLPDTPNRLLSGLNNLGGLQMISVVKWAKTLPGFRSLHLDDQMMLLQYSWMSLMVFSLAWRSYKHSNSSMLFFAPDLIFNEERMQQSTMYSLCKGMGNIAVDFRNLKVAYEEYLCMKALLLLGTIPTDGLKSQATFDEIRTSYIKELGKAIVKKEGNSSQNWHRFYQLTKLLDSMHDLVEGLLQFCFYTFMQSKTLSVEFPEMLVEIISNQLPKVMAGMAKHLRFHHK
Protocol: LBDs were cloned as fusion proteins into a pSG5-Gal4DBD expression vector (gift of D. Furlow) and cotransfected using Lipofectamine and Plus Reagents (Invitrogen, Carlsbad, CA) with a UAS-driven luciferase reporter gene (pFRluc) into mammalian cell culture (CHO-K1), and grown in phenol red-free α-MEM plus 10% dextran-charcoal-stripped fetal bovine serum (Hyclone, Logan, UT). Cells were incubated with transfection reagents for four hours, after which they were treated with fresh medium; after recovery, cells were treated in triplicate with hormone or vehicle control, and incubated for one day. Reporter expression was measured using Dual-Glo (Promega, Madison, WI) and dose-response relationships analyzed using Prism4 (GraphPad, La Jolla, CA). Site-directed mutagenesis was carried out using QuickChange II (Stratagene, La Jolla, CA) and clones verified by DNA sequencing. Plausible alternate states were defined as non-maximum likelihood amino acid states with posterior probability >0.20; we reasoned that residues that are present in one or more extant high-sensitivity receptors are the most likely to increase receptor sensitivity, whereas those that are present only in low-sensitivity receptors are unlikely to confer high sensitivity. Each such alternate state was introduced singly into the ML AncGR1.1, and the experimental characterization was repeated. We used a luciferase reporter gene expression assay to characterize the sensitivity of each LBD to four major corticosteroids present in elasmobranchs – 11-deoxycorticosterone (DOC), corticosterone, 1alpha-hydroxycorticosterone, and 11-dehydrocorticosterone, [35]. […] All hormone-activated cartilaginous fish GRs were most sensitive to DOC and corticosterone. The receptors had EC50 values (the hormone concentration required to elicit half-maximal activation) for these steroids in the 10^−8 to 10^−6 M range (Figure 2, Table S1), typical of the EC50s of bony fish GRs for glucocorticoids but two to four orders of magnitude greater than AncCR or the MRs of bony vertebrates. […]

AncCR [1] = biological target: T2, AncCR (synthetic construct, UniProt Z9R9E8A6B0, V46A/S74C/R119H, form not given); assay: luciferase reporter gene activation (Gal4DBD-LBD); format: cell-based; details: CHO-K1 cells, agonist, one day, triplicate; error is SE
T2 construct: LBD fused to Gal4 DBD in pSG5; CHO-K1 cells with UAS-luciferase
T2 sequence (Z9R9E8A6B0 4-249 V46A/S74C/R119H): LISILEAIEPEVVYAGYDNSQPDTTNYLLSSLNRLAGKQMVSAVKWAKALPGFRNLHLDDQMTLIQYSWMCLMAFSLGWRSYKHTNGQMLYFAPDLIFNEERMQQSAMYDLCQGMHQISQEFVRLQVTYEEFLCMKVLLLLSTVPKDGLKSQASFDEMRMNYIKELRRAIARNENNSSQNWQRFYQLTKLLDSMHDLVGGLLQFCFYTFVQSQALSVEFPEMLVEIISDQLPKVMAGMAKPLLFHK
Source text: (§1) luciferase reporter gene activation (Gal4DBD-LBD) on AncCR

AncCR [2] = biological target: T3, AncCR (synthetic construct, UniProt Z9R9E8A6B0, S74C/K86Q, form not given); assay: luciferase reporter gene activation (Gal4DBD-LBD); format: cell-based; details: CHO-K1 cells, agonist, one day, triplicate; error is SE
T3 construct: LBD fused to Gal4 DBD in pSG5; CHO-K1 cells with UAS-luciferase
T3 sequence (Z9R9E8A6B0 4-249 S74C/K86Q): T2 sequence (Z9R9E8A6B0 4-249 V46A/S74C/R119H) with A43V, K83Q, H116R
Source text: as §1

AncCR [3] = biological target: T4, AncCR (synthetic construct, UniProt Z9R9E8A6B0, S74C, form not given); assay: luciferase reporter gene activation (Gal4DBD-LBD); format: cell-based; details: CHO-K1 cells, agonist, one day, triplicate; error is SE
T4 construct: LBD fused to Gal4 DBD in pSG5; CHO-K1 cells with UAS-luciferase
T4 sequence (Z9R9E8A6B0 4-249 S74C): T2 sequence (Z9R9E8A6B0 4-249 V46A/S74C/R119H) with A43V, H116R
Source text: as §1

AncCR [4] = biological target: T5, AncCR (synthetic construct, UniProt Z9R9E8A6B0); assay: luciferase reporter gene activation (Gal4DBD-LBD); format: cell-based; details: CHO-K1 cells, agonist, one day, triplicate; error is SE
T5 construct: LBD fused to Gal4 DBD in pSG5; CHO-K1 cells with UAS-luciferase
T5 sequence (Z9R9E8A6B0 4-249): T2 sequence (Z9R9E8A6B0 4-249 V46A/S74C/R119H) with A43V, C71S, H116R
Source text: as §1

AncCR [5] = biological target: T6, AncCR (synthetic construct, UniProt Z9R9E8A6B0, V46A/R119H, form not given); assay: luciferase reporter gene activation (Gal4DBD-LBD); format: cell-based; details: CHO-K1 cells, agonist, one day, triplicate; error is SE
T6 construct: LBD fused to Gal4 DBD in pSG5; CHO-K1 cells with UAS-luciferase
T6 sequence (Z9R9E8A6B0 4-249 V46A/R119H): T2 sequence (Z9R9E8A6B0 4-249 V46A/S74C/R119H) with C71S
Source text: as §1

AncCR [6] = biological target: T7, AncCR (synthetic construct, UniProt Z9R9E8A6B0, L4M/S74C, form not given); assay: luciferase reporter gene activation (Gal4DBD-LBD); format: cell-based; details: CHO-K1 cells, agonist, one day, triplicate; error is SE
T7 construct: LBD fused to Gal4 DBD in pSG5; CHO-K1 cells with UAS-luciferase
T7 sequence (Z9R9E8A6B0 4-249 L4M/S74C): T2 sequence (Z9R9E8A6B0 4-249 V46A/S74C/R119H) with L1M, A43V, H116R
Source text: as §1

AncCR [7] = biological target: T8, AncCR (synthetic construct, UniProt Z9R9E8A6B0, V46A/S74C, form not given); assay: luciferase reporter gene activation (Gal4DBD-LBD); format: cell-based; details: CHO-K1 cells, agonist, one day, triplicate; error is SE
T8 construct: LBD fused to Gal4 DBD in pSG5; CHO-K1 cells with UAS-luciferase
T8 sequence (Z9R9E8A6B0 4-249 V46A/S74C): T2 sequence (Z9R9E8A6B0 4-249 V46A/S74C/R119H) with H116R
Source text: as §1

AncCR [8] = biological target: T9, AncCR (synthetic construct, UniProt Z9R9E8A6B0, S74C/A110S, form not given); assay: luciferase reporter gene activation (Gal4DBD-LBD); format: cell-based; details: CHO-K1 cells, agonist, one day, triplicate; error is SE
T9 construct: LBD fused to Gal4 DBD in pSG5; CHO-K1 cells with UAS-luciferase
T9 sequence (Z9R9E8A6B0 4-249 S74C/A110S): T2 sequence (Z9R9E8A6B0 4-249 V46A/S74C/R119H) with A43V, A107S, H116R
Source text: as §1

AncCR [9] = biological target: T10, AncCR (synthetic construct, UniProt Z9R9E8A6B0, S74C/R119H, form not given); assay: luciferase reporter gene activation (Gal4DBD-LBD); format: cell-based; details: CHO-K1 cells, agonist, one day, triplicate; error is SE
T10 construct: LBD fused to Gal4 DBD in pSG5; CHO-K1 cells with UAS-luciferase
T10 sequence (Z9R9E8A6B0 4-249 S74C/R119H): T2 sequence (Z9R9E8A6B0 4-249 V46A/S74C/R119H) with A43V
Source text: as §1

AncCR [10] = biological target: T11, AncCR (synthetic construct, UniProt Z9R9E8A6B0, S74C/Q116K, form not given); assay: luciferase reporter gene activation (Gal4DBD-LBD); format: cell-based; details: CHO-K1 cells, agonist, one day, triplicate; error is SE
T11 construct: LBD fused to Gal4 DBD in pSG5; CHO-K1 cells with UAS-luciferase
T11 sequence (Z9R9E8A6B0 4-249 S74C/Q116K): T2 sequence (Z9R9E8A6B0 4-249 V46A/S74C/R119H) with A43V, Q113K, H116R
Source text: as §1

AncCR [11] = biological target: T12, AncCR (synthetic construct, UniProt Z9R9E8A6B0, S74C/Q214E, form not given); assay: luciferase reporter gene activation (Gal4DBD-LBD); format: cell-based; details: CHO-K1 cells, agonist, one day, triplicate; error is SE
T12 construct: LBD fused to Gal4 DBD in pSG5; CHO-K1 cells with UAS-luciferase
T12 sequence (Z9R9E8A6B0 4-249 S74C/Q214E): T2 sequence (Z9R9E8A6B0 4-249 V46A/S74C/R119H) with A43V, H116R, Q211E
Source text: as §1

## C[C@]12C[C@H](O)[C@H]3[C@@H](CCC4=CC(=O)CC[C@@]43C)[C@@H]1CC[C@@H]2C(=O)CO [B, corticosterone]
Leri GR; read-out: B log EC50 (converted)
  EC50: 28.3 nM

## C[C@]12C[C@H](O)[C@H]3[C@@H](CCC4=CC(=O)C[C@H](O)[C@@]43C)[C@@H]1CC[C@@H]2C(=O)CO [1α-B, 1α-hydroxycorticosterone]
Leri GR; read-out: 1α-B log EC50 (converted)
  EC50: 2000 nM

## C[C@]12CC[C@H]3[C@@H](CCC4=CC(=O)CC[C@@]43C)[C@@H]1CC[C@@H]2C(=O)CO [DOC, 11-deoxycorticosterone]
AncCR [1]
  log EC50 ^b: −6.418 ± 0.06 log10 M
AncCR [2]
  log EC50 ^b: −10.330 ± 0.41 log10 M
AncCR [3]
  log EC50 ^b: −10.870 ± 0.34 log10 M
AncCR [4]
  log EC50 ^b: −10.690 ± 0.64 log10 M
AncCR [5]
  log EC50 ^b: −8.387 ± 0.54 log10 M
AncCR [6]
  log EC50 ^b: −10.250 ± 0.30 log10 M
AncCR [7]
  log EC50 ^b: −8.443 ± 0.15 log10 M
AncCR [8]
  log EC50 ^b: −10.350 ± 0.24 log10 M
AncCR [9]
  log EC50 ^b: −8.812 ± 0.28 log10 M
AncCR [10]
  log EC50 ^b: −9.773 ± 0.43 log10 M
AncCR [11]
  log EC50 ^b: −10.170 ± 0.43 log10 M
Leri GR; read-out: DOC log EC50 (converted)
  EC50: 305 nM
